Assay results from PubChem BioAssay (NCI).
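Results reflect a 48-hour exposure of cells in 96-well plates to compound at five concentrations. GI50 is the concentration that inhibits growth by half. Definition used: TGI = concentration required for complete inhibition of growth.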

Legend:
Test in all cases: NCI tumour cell line growth inhibition, 48 h
HL-60(TB) leukemia = test system: HL-60(TB) leukemia
SK-MEL-28 melanoma = test system: SK-MEL-28 melanoma
MALME-3M melanoma = test system: MALME-3M melanoma
HCT-15 colon = test system: HCT-15 colon
OVCAR-4 ovarian = test system: OVCAR-4 ovarian
RPMI-8226 leukemia = test system: RPMI-8226 leukemia
SF-295 CNS = test system: SF-295 CNS
M14 melanoma = test system: M14 melanoma
MDA-MB-435 = test system: MDA-MB-435
PC-3 prostate = test system: PC-3 prostate

Row | Compound | TGI (HL-60(TB) leukemia) [µM] | TGI (SK-MEL-28 melanoma) [µM] | TGI (MALME-3M melanoma) [µM] | TGI (HCT-15 colon) [µM] | TGI (OVCAR-4 ovarian) [µM] | TGI (RPMI-8226 leukemia) [µM] | TGI (SF-295 CNS) [µM] | TGI (M14 melanoma) [µM] | GI50 (SK-MEL-28 melanoma) [µM] | GI50 (MALME-3M melanoma) [µM] | GI50 (HCT-15 colon) [µM] | GI50 (OVCAR-4 ovarian) [µM] | GI50 (MDA-MB-435) [µM] | TGI (MDA-MB-435) [µM] | GI50 (RPMI-8226 leukemia) [µM] | GI50 (SF-295 CNS) [µM] | GI50 (PC-3 prostate) [µM] | TGI (PC-3 prostate) [µM] | GI50 (M14 melanoma) [µM] | GI50 (HL-60(TB) leukemia) [µM]
1 | COC(=O)C1=Cc2cc3c(cc2[C@H](c2ccc4c(c2)OCO4)C1C(=O)OC)OCO3 (some centres not stated) | > 100 | > 100 | > 100 | > 100 | > 100 | > 100 | > 100 | > 100 |  |  |  |  |  |  |  |  |  |  |  | 
2 | CCOC(=O)C(C(=O)c1ccccc1-c1ccccc1C(=O)O)=P(c1ccccc1)(c1ccccc1)c1ccccc1 | 57.5 | 33.3 | 66.9 | 74.8 | 43.6 | 78.9 | 88.8 | > 100 |  |  |  |  |  |  |  |  |  |  |  | 
3 | CCCOC(=O)C1CCC(=O)N1C(=O)C(Cl)Cl (configuration not stated) | > 100 | > 100 | > 100 | > 100 | > 100 | > 100 | > 100 | > 100 |  |  |  |  |  |  |  |  |  |  |  | 
4 | COC(=O)C1=C(O)C(O)=C(C(=O)OC)CC1 | > 100 | > 100 | > 100 | > 100 | > 100 | > 100 | > 100 | > 100 |  |  |  |  |  |  |  |  |  |  |  | 
5 | COC(=O)C(=O)C(C#N)c1cccc2ccccc12 (configuration not stated) | > 100 | > 100 | > 100 | > 100 | > 100 | > 100 | > 100 | > 100 |  |  |  |  |  |  |  |  |  |  |  | 
6 | CCCCc1ccc2nc(NC(=O)OC)[nH]c2c1 |  | 35.3 | 23.7 | > 95.2 | > 69.2 |  | 0.475 | 0.69 | 0.087 | 0.0526 | 0.0434 | 1.7 | 0.0148 | 0.0379 | 0.0331 | 0.0299 | 0.0413 | > 82.7 | 0.0351 | 
7 | COC1OC(OC)C2C(c3c(C)cc(C)cc3C)=NOC12 (configuration not stated) | > 100 | > 100 | > 100 | > 100 | > 100 | > 100 | > 100 | > 100 |  |  |  |  |  |  |  |  |  |  |  | 
8 | CCCCN(CCCC)C(=Nc1ccccc1)N(CCCC)CCCC | 4.09 | 11.8 | 22.5 |  |  | 4.42 | 23.1 |  |  |  |  |  |  |  |  |  |  |  |  | 
9 | O=C(CC1Sc2ccccc2NC1=O)Nc1cccc(Cl)c1 (configuration not stated) | > 100 | 89.7 | > 100 | > 100 | > 100 | 69.6 | > 100 | > 100 |  |  |  |  |  |  |  |  |  |  |  | 
10 | Nc1nc2nc3c(nc2c(=O)[nH]1)CN(c1ccc(C(=O)O)cc1)C3=O |  | > 100 | > 100 | > 100 | > 100 | > 100 | > 100 | > 100 |  |  |  |  |  | > 100 |  |  |  | > 100 |  | 
11 | Clc1ccc(Cl)c(N/N=C\c2c[nH]c3ccccc23)c1 |  |  | 39.8 | > 100 | 23 | 26.1 | 70.4 | 25.4 |  | 20.3 | 8.81 | 10.7 | 12.2 | 28.1 | 6.16 | 13.8 | 0.915 | 9.48 | 12.8 | 
12 | CC(C)NC(=O)OCc1nnn2c1C(OC(=O)NC(C)C)CC2 (configuration not stated) |  | > 100 | > 100 | > 100 | > 100 | > 100 | > 100 | > 100 |  |  |  |  |  |  |  |  |  |  |  | 
13 | CCC12C=CCN3CC[C@]4(C(=C(C(=O)OC)[C@@H]1Nc1ncnc5c1ncn5C1OC(COC(C)=O)C(OC(C)=O)C1OC(C)=O)Nc1ccccc14)C32 (some centres not stated) | 7.39 | 10.8 | 15.1 | 7.79 | 5.23 | 18.9 | 9.67 | 7.03 |  |  |  |  |  |  |  |  |  |  |  | 
14 | COC1CCC(=C2C(=O)OC(C)(C)OC2=O)N1 (configuration not stated) | > 100 | > 100 | > 100 | > 100 | > 100 | > 100 | > 100 | > 100 |  |  |  |  |  |  |  |  |  |  |  | 
15 | CCc1ccc(Cc2ccc(CC)c(NC(=O)C(=O)Cc3nc4ccccc4nc3C)c2CC)c(CC)c1NC(=O)C(=O)Cc1nc2ccccc2nc1C | > 100 | > 100 | > 100 | > 100 | > 100 | > 100 |  | > 100 |  |  |  |  |  |  |  |  |  |  |  | 
16 | COC(=O)C1=CC(=O)C(C(=O)Nc2ccc(OC)cc2)C(c2ccccc2)O1 (configuration not stated) | > 100 | > 86.3 | > 84.8 | > 100 | > 77.9 | > 100 | 61.4 | 98.7 |  |  |  |  |  |  |  |  |  |  |  | 
17 | COc1ccc(CN2CCc3c(Cl)nc(N)nc3C2=O)c(OC)c1 | 5.52 | 29.4 | 44.2 | 24.3 | 25.6 | 52.7 | > 100 | 28.1 | 15.7 | 15.8 | 10.4 | 12.6 | 16.4 | 39.5 | 16 | 40.3 |  |  | 13.8 | 1.67
18 | COc1ccc(CN(O)C2C(CO)OC(n3cc(I)c(=O)[nH]c3=O)C2O)cc1 (configuration not stated) | > 100 | > 100 | > 100 | > 100 | > 100 | > 100 | > 100 | > 100 |  |  |  |  |  |  |  |  |  |  |  | 
19 | CC(=O)O[C@@H]1C=CC(=O)C2(CC(=O)O[C@@H]2/C=C(\C)CCC=C(C)C)C1 (some centres not stated) | 0.557 | 7.79 |  | 1.28 |  |  | 4.07 |  | 2.15 |  | 0.285 |  | 0.369 | 1.6 |  | 1.75 | 0.383 | 1.19 |  | 0.184
20 | CCS[C@H]1NC(=O)C1[C@H](C)O[Si](C)(C)C(C)(C)C (some centres not stated) |  | > 100 | > 100 | > 100 | > 100 | > 100 | > 100 |  |  |  |  |  |  |  |  |  |  |  |  | 
21 | c1ccc([CH2][Sn]([CH2]c2ccccc2)([S]c2cccc3cccnc23)[S]c2cccc3cccnc23)cc1 | 0.687 | 0.864 |  | 0.476 | 0.422 |  | 2.29 | 0.511 | 0.201 |  | 0.2 | 0.172 |  |  |  | 0.394 |  |  | 0.221 | 0.273
